Experimental data taken from US20140227419A1, “ANTI-FUNGAL AGENT FOR PROCESSED CEREAL FOODS” (NAGASE & co., LTD., priority 2011, published 2014).

System: mold
Test: Anti-fungal effect by spraying method (2): loaves with calcium propionate kneaded into the dough sprayed, mold growth checked visually
Settings: 0.3% calcium propionate kneaded into bread dough; sprayed with nothing
Experimental: Three hundred and thirty grams of bread dough (dough) of the raw materials blended in the ratio shown in Table 1 (Example 1) was mixed at a low speed for 5 minutes, and then, was mixed at a high speed for 7 minutes. The dough was retained at 35° C. for 100 minutes to be leavened, and then, was baked at 140° C. for 20 minutes to obtain a loaf of bread (hereinafter, referred to as a “loaf”).
The obtained loaf was left to room temperature, and the entire surface of the loaf (approximately 280 g) was sprayed with a spraying agent (approximately 10 μL/cm^2) shown in Table 2 (“0.1% chitinase” means a concentration when 1 mg of chitinase is added with respect to 1 ml of the spraying agent). The loaves were retained in the atmosphere to dry the surface, and then, the loaves were independently put into separate plastic bags and were preserved at a room temperature. The presence or the absence of the growth of mold was checked visually. […]
The anti-fungal effects of the spraying agents 1 to 3 were evaluated in the same manner as in Example 1, except that the raw materials were blended in the ratio shown in Table 1 (Example 2) instead of the ratio shown in Table 1 (Example 1). […]

## CCC(=O)[O-].CCC(=O)[O-].[Ca+2] [calcium propionate]
  Length of preservation time of bread with calcium propionate kneaded into the dough, without spraying: 11 days
